Columns and labels:
[1] = test system: ApoE/LDLR−/− mice; assay: Example 2: nitrite and nitrate concentration in plasma (HPLC, ENO-20); type: in vivo; settings: two months
Protocol: Blood samples were collected from heart into test tubes containing additional anticoagulant and centrifuged at 1000 g for 10 min at 4° C. The samples were used for HPLC measurement of nitrate (NO3−) and nitrite (NO2−) concentrations in plasma by an ENO-20 NOx Analyzer.

[2] = test system: endothelial nitric oxide synthase (eNOS)-dependent nitric oxide (NO) production; assay: Example 3: endothelial NO production in ex vivo aorta by EPR spin-trapping; settings: 0.05 mg/kg b.w./day, vs untreated age-matched mice
Description: For measurements of endothelial nitric oxide synthase (eNOS)-dependent nitric oxide (NO) production, EPR spin-trapping with diethyldithiocarbamic acid sodium salt (DETC) was used ex vivo, as described in Przyborowski K, Proniewski B, Czarny J, Smeda M, Sitek B, Zakrzewska A, et al. Vascular Nitric Oxide-Superoxide Balance and Thrombus Formation after Acute Exercise. Med Sci Sport Exerc 2018:1. doi:10.1249/MSS.0000000000001589, with minor modifications. Isolated aorta cleared from surrounding tissue was opened longitudinally and preincubated with 10 μM L-NIL (N6-(1-Iminoethyl)-lysine, hydrochloride) in Krebs-HEPES buffer for 30 minutes at 37° C. in a well of a 48-well plate. Next, 250 μL of Fe(DETC)2 colloid was added and aorta was stimulated with calcium ionophore A23187 (the final concentration was 1 μM) and subsequently, incubated for 90 minutes at 37° C. Finally, aorta was weighed and frozen in liquid nitrogen (suspended in fresh buffer) into the middle of a 400 μL column of Krebs-Hepes buffer and stored at −80° C. until measured. EPR spectra were obtained using an X-band EPR spectrometer (EMX Plus, Bruker, Germany), equipped with a rectangular resonator cavity H102. Signals were quantified by measuring the total amplitude of the NO—Fe(DETC)2 after correction of baseline. The quantitative results of NO production assessed by EPR were expressed in AU/mg of tissue.

[3] = test system: ApoE/LDLR−/− mice; assay: Example 3: nitrite and nitrate concentration in plasma, older mice; type: in vivo; settings: eight weeks
[4] = test system: ApoE/LDLR−/− mice; assay: Example 3: MRI assessment of Ach response in BCA and LCA, older mice with advanced atherosclerosis; type: in vivo; settings: low dose 0.03 mg/kg b.w/day, eight weeks, 24-week-old mice; listed as vitamin K2, 0.03 mg/kg/day
Protocol: In a second part of the study, the effects of a low dose (0.03 mg/kg b.w./day) as well as a high doses (10 mg/kg b.w./day) of vitamin K2 (MK-7) on endothelial function in ApoE/LDLR−/−mice with pre-established atherosclerosis were assessed.
Magnetic resonance imaging (MRI) experiments were performed using a 9.4T scanner (BioSpec 94/20 USR, Bruker, Germany) located in the Department of Magnetic Resonance Imaging, Institute of Nuclear Physics, Polish Academy of Sciences in Krakow. During the experiment, mice were anaesthetized using isoflurane (Aerrane, Baxter Sp. z o. o., Poland, 1.7 vol %) in an oxygen and air (1:2) mixture and imaged in the supine position. Activity of the heart, respiration, and body temperature (maintained at 37° C. using circulating warm water) were monitored using a Monitoring and Gating System (SA Inc., Stony Brook, N.Y., USA). […]
Vasomotor response was examined by comparing two time-resolved 3D images of the vessels prior to and 25 minutes after intraperitoneal Ach administration (Sigma-Aldrich, Poznan Poland: 50 μl, 16.6 mg/kg), as well as prior to and 5 minutes after vessel occlusion. […] End-diastolic volumes of vessels were analyzed using ImageJ software 1.46r (NIH Bethesda, Md., USA) and scripts written in Matlab (MathWorks, Natick, Mass., USA). […]

[5] = test system: ApoE/LDLR−/− mice; assay: Example 2: histological assessment of plaque size, composition and vessel wall area in BCA; type: in vivo; settings: two months
Description: For the determination of atherosclerotic plaque area and composition BCA was dissected, fixed in 4% buffered formalin and embedded in paraffin. 5 μm-thick serial sections of BCA were collected from proximal, middle and distal parts of artery. Originally developed staining with Unna's orcein combined with Martius, Scarlet and Blue trichrome (OMSB), was applied on every tenth section (50 μm interval between each section) for visualization of collagen, elastin, fibrin, red blood cells and vascular smooth muscle cells within atherosclerotic plaque. The areas of particular components of atherosclerotic plaque as well as artery lumen and wall were determined after Columbus-based software processing (FIG. 1B) using a previously developed algorithm [Gajda M, Jasztal A, Banasik T, Jasek-Gajda E, Chlopicki S. Combined orcein and martius scarlet blue (OMSB) staining for qualitative and quantitative analyses of atherosclerotic plaques in brachiocephalic arteries in apoE/LDLR−/− mice. Histochem Cell Biol 2017. doi:10.1007/s00418-017-1538-8.].

CC(C)=CCC/C(C)=C/CC/C(C)=C/CC/C(C)=C/CC/C(C)=C/CC/C(C)=C/CC/C(C)=C/CC1=C(C)C(=O)c2ccccc2C1=O [MK-7, menaquinone-7]
concentration of NO3− in plasma ([1]; 0.03 mg/kg b.w./day): did not change significantly
concentration of NO3− in plasma ([1]; 10 mg/kg b.w./day): did not change significantly
nitric oxide production in ex vivo aorta measured by EPR [2]: increased
concentration of NO3− in plasma ([3]; 0.03 mg/kg b.w./day): did not change significantly
concentration of NO3− in plasma ([3]; 10 mg/kg b.w./day): did not change significantly
increase in NO2− concentration in plasma ([3]; high dose 10 mg/kg b.w./day): ~42%
increase in NO2− concentration in plasma ([3]; low dose 0.03 mg/kg b.w./day): about 58%
volume change of LCA after Ach injection [4]: ~−3%
content of collagen in plaque, treated vs untreated ([5]; high dose 10 mg/kg b.w./day): lack of differences
decrease in lipid core expressed as percent of plaque ([5]; high dose 10 mg/kg b.w./day): about 17%
decrease in vessel wall area (VWA) of BCA ([5]; high dose 10 mg/kg b.w./day): about 5%
effect on plaque size ([5]; high dose 10 mg/kg b.w./day): did not result in a beneficial effect
lumen area expressed as percent of IWA ([5]; high dose 10 mg/kg b.w./day): did not change
plaque area expressed as percent of IWA ([5]; high dose 10 mg/kg b.w./day): did not change
content of collagen in plaque, treated vs untreated ([5]; low dose 0.03 mg/kg b.w./day): lack of differences
decrease in lipid core expressed as percent of plaque ([5]; low dose 0.03 mg/kg b.w./day): about 17%
decrease in vessel wall area (VWA) of BCA ([5]; low dose 0.03 mg/kg b.w./day): about 5%
effect on plaque size ([5]; low dose 0.03 mg/kg b.w./day): did not result in a beneficial effect
lumen area expressed as percent of IWA ([5]; low dose 0.03 mg/kg b.w./day): did not change
plaque area expressed as percent of IWA ([5]; low dose 0.03 mg/kg b.w./day): did not change
internal wall area (IWA) ([5]; lower dose 0.03 mg/kg b.w./day, not visible for entire vessel): decreased only in the middle part of the vessel

— US11911349B2, “Rapidly improving vascular conditions by administering vitamin K” (NATTOPHARMA AS, priority 2018, dated 2024)
